Test system: Plasmodium falciparum
Test: GSK_TCMDC: Inhibition of Plasmodium falciparum 3D7 in whole erythrocytes, using parasite LDH activity as an index of growth.
Assay type: functional, organism-based
Settings: Plasmodium falciparum, 3D7

Compound | XC50
CCOc1cc(Cc2cnc(N)nc2N)cc(OCC)c1OCC | 0.284 µM
Cc1cc(N/N=C/c2ccccc2[N+](=O)[O-])c2cc(F)ccc2n1 | 0.665 µM
Cc1ccc2nc(C)cc(N/N=C/c3ccc([N+](=O)[O-])o3)c2c1 | 0.751 µM
CCN(CC)CCN(Cc1ccc(-c2ccc(Br)cc2)cc1)C(=O)Cn1c(CCc2cccc(F)c2F)nc(=O)c2ccccc21 | 0.788 µM
Cc1ccccc1CNCC(O)c1cccc(C(F)(F)F)c1 (stereo not given) | 0.881 µM
O=C(/C=C/c1ccc(Cl)c(Cl)c1)NCCCCCN1CCC(c2c[nH]c3ccc(O)cc23)CC1 | 0.886 µM
O=C(Nc1cccc(OC2CCN(Cc3ccccc3)CC2)c1)c1ccc([N+](=O)[O-])cc1 | 0.661 µM
Cn1c(NC(=O)c2ccc(CNC(=O)c3ccc(O)c(-c4ccc(Cl)c(Cl)c4)c3)cc2)nc2ccccc21 | 0.842 µM
COc1ccc2nc(N3CCN(C(=O)OC(C)(C)C)CC3)nc(NCCCc3ccccc3)c2c1 | 0.687 µM
Oc1ccc(CCNc2nc(NCc3ccccc3-c3ccc(C(F)(F)F)cc3)nc(N3CCCNCC3)n2)cc1 | 0.866 µM
CCc1cc(CNC2CCN(CCc3c(F)cnc4ccc(OC)nc34)CC2)cc2c1OCCO2 | 0.264 µM
CCN(CC)CCCCOc1ccc2c(c1)C(=O)c1cc(OCCCCN(CC)CC)ccc1-2 | 0.759 µM
CCCCOP(=O)(COc1ccc(CCN(CC(O)COc2cccc3[nH]c4ccccc4c23)CC(O)COc2cccc3[nH]c4ccccc4c23)cc1)C1CCCCC1 (stereo not given) | 0.939 µM
NC1=NC(c2ccccc2)(c2ccccc2)C(=O)N1Cc1ccc(-c2ccncc2)cc1 | 0.772 µM
CC1(C)N=C(N)N=C(N)N1OCCc1ccc2ccccc2c1 | 0.0032 µM
CC(Cc1ccc(C(C)(C)C)cc1)NCC(O)c1ccccc1 (stereo not given) | 1.81 µM
CN(CCO)Cc1cccc(-c2ccc(NC(=O)c3cccc(C#N)c3)cc2)c1 | 0.796 µM
CC1CCC(NCc2ccc3c(CNC4CCC(C)CC4)c(O)ccc3c2O)CC1 (stereo not given) | 0.116 µM
O=C(/C=C/c1ccc(Cl)c(Cl)c1)NC1CCC(CN2CCC(Cc3cc4ccccc4[nH]3)CC2)CC1 (stereo not given) | 0.508 µM
CCC(=O)Nc1ccc(Nc2nc(C)cc(N3CCCC3)n2)cc1 | 1.32 µM
O=C(c1cccc(-c2noc(C(F)(F)F)n2)c1)N1CCN(c2ccncc2)CC1 | 0.233 µM
Nc1nc(N)c2c3c(ccc2n1)NCCC3 | 0.734 µM
NC(=O)c1cccc(C(=O)Nc2cccc(-c3cccc(-c4nc5cc(C(F)(F)F)ccc5[nH]4)c3)c2)c1 | 0.126 µM
CN(/N=C/C=C/c1ccc(Cl)cc1)c1nc(NCCc2ccc(O)cc2)nc(N2CCNCC2)n1 | 0.873 µM

Compound | XC50
Cc1nc(-c2cccc(Nc3nccc(NCC(O)c4cccc(F)c4)n3)c2)cs1 (stereo not given) | 0.699 µM
COc1ccccc1C1CCN(C2CCC(NC(=O)c3cc4cc(C(C)C)ccc4[nH]3)CC2)CC1 (stereo not given) | 0.85 µM
Cc1ccc2nc3c(cc(C(=O)NCc4ccccc4)c(=N)n3CCCn3ccnc3)c(=O)n2c1 | 0.993 µM
COc1ccc(-c2nonc2NC(=O)c2ccc(C(C)(C)C)cc2)cc1OC | 0.814 µM
COc1ccc(CNCc2cccc(-c3csc(-c4nc5ccccc5[nH]4)c3)c2)cc1 | 0.645 µM
Cn1c(=N)n(CC(=O)OCc2ccc(OCc3ccccc3)cc2)c2ccccc21 | 0.0819 µM
Fc1ccc(CNc2ccc3ncc(-c4cccnc4)n3n2)cc1 | 0.928 µM
NC(=O)COc1c(C2CCN(CCN3CCC(CNC(=O)c4ccc(-c5ccc(C(F)(F)F)cc5)cc4)CC3)CC2)ccc2c1CCCC2 | 0.969 µM
COc1ccc(C(=O)CCC(=O)N(Cc2ccc(-c3ccc(CNCCc4ccc(S(C)(=O)=O)cc4)cn3)cc2)C2CCN(Cc3ccccc3)CC2)cc1F | 0.437 µM
COc1ccc(NS(=O)(=O)c2ccc(C(=O)Nc3ccc(OC(F)(F)F)cc3)cc2)cc1N1CCN(CC2CC2)CC1 | 1 µM
CC(C)(C)c1nn(-c2ccc(Cl)cc2)c2[nH]c(=O)c(CNCc3cccs3)cc12 | 0.759 µM
COc1ccc(-c2cnc3ccc(NCc4ccc(S(N)(=O)=O)cc4)nn23)cc1 | 0.796 µM
CC1(CCCCN2CCC(Oc3ccc(F)cc3F)CC2)C(=O)Nc2ccccc21 (stereo not given) | 0.761 µM
C[C@H](N[C@H]1CCCc2c1[nH]c1ccc(Br)cc21)c1ccccc1 | 0.222 µM
C=Cc1ccccc1C1(O)CCN(CCCCNC(=O)c2ccc(-c3ccc(C#N)cc3)cc2)CC1 | 0.518 µM
O=C(/C=C/c1c(Cl)cccc1Cl)NC1CCC(CN2C3CCC2CC(c2c[nH]c4ccccc24)C3)CC1 (stereo not given) | 0.844 µM
Cc1ccc(O)c(C(=O)c2cnc3c(c2)c(-c2ccc(F)cc2)c(C#N)c(=O)n3C)c1 | 0.971 µM
COc1ccc2nc3cc(Cl)ccc3c(NCCN(C)C)c2c1 | 0.188 µM
COc1cc2ccccc2c(CON2C(=N)N=C(N)NC2(C)C)c1OC | 0.0464 µM
Cc1ccc(Nc2nccc(NCC(O)c3cccc(C)c3)n2)cc1 (stereo not given) | 1.02 µM
COc1ccc(Nc2ncc3c(-c4cccc(NC(=O)Cc5cccc(F)c5)c4)c[nH]c3n2)cc1OC | 0.567 µM
CC(C)N1CCN(CCCNc2c3ccccc3nc3ccccc23)CC1 | 0.233 µM
CC(=O)Nc1ncc(C(=O)Nc2cccc(-c3ccc(-c4nc5ccccc5[nH]4)cc3)c2)s1 | 0.669 µM
CCN(CC)/C(=N/C(=N)NCc1cccc(Cl)c1)NCCCCCCN/C(=N\C(=N)NCc1cccc(Cl)c1)N(CC)CC | 0.206 µM

Compound | XC50
O=C(Nc1ccc(F)cc1)c1nc2ccccc2nc1Cl | 1.23 µM
O=C(Nc1ccc(Cn2ncc(N3CCCNCC3)c(Cl)c2=O)cc1)Nc1cccc(SC(F)(F)F)c1 | 0.675 µM
O=C(CC1CCCC1)N(CC1CCN(Cc2ccc(C(F)(F)F)cc2)CC1)c1ccc(N2CCOCC2)c(F)c1 | 0.432 µM
CNC(=O)c1cc(S(=O)(=O)N2CCN(c3ccccn3)CC2)c(C)s1 | 1.16 µM
Cc1cccc2nc(-c3ccc(-c4cccc(NC(=O)Nc5ccc(Cl)c(Cl)c5)c4)s3)[nH]c12 | 0.594 µM
CC(CN1CCN(C)CC1)C(=O)Nc1ccc(-c2cccc(-c3nc4cc(F)ccc4[nH]3)c2)cc1 (stereo not given) | 0.522 µM
COc1ccc(-c2ccc(CNCc3ccc(F)cc3)cc2)cc1S(=O)(=O)NCCN1CCCC1 | 0.731 µM
Nc1cccc(CNCc2cccc(-c3cccc(-c4nc5ccccc5[nH]4)c3)c2)c1 | 0.615 µM
CCNc1cc(C(=O)N[C@@H](Cc2ccccc2)[C@H](O)CNC(C)(C)Cc2ccccc2)cc(N2CCCC2=O)c1 | 0.262 µM
CC(=O)Nc1ccc(C(=O)Nc2cccc(-c3ccc(-c4nc5ccccc5[nH]4)cc3)c2)cn1 | 0.206 µM
COc1cc(F)c2ncc(Cl)c(CCN3CCC(NCc4cc5c(cn4)OCCO5)CC3)c2c1 | 0.481 µM
COc1cc2c(cc1OC)C(C(=O)c1ccccc1)=NCC2 | 1.09 µM
O=C(Cc1c[nH]cn1)Nc1cccc(-c2cccc(-c3nc4cc(F)ccc4[nH]3)c2)c1 | 0.777 µM
Cc1cc(-c2ccc3occ(CCN)c3c2)cnc1N | 0.877 µM
CN1CCN(c2ccc(Nc3nc(N)c4ccn(C5CCC5)c4n3)cc2)CC1 | 1.22 µM
Cc1cc2ncn(-c3nccc(NCc4ccc(F)c(C)c4)n3)c2cc1C | 0.99 µM
CCCC1CCNC(C(O)c2ccnc3ccc(OC)cc23)C1 (stereo not given) | 0.426 µM
COc1ccccc1N1CCN(c2cccc3c2nc(-c2cncc(C#N)c2)n3CCNCc2ccccc2)CC1 | 0.706 µM
CCCN1CCN(c2cc(S(=O)(=O)Nc3ccc(C(=O)NCc4cccc(C(F)(F)F)c4)cc3)ccc2OC)CC1 | 1.01 µM
NC(=O)C1CCN(Cc2ccc(-c3ccc(-c4nc5cc(C(F)(F)F)ccc5[nH]4)cc3)cc2)CC1 | 0.68 µM
CCCCCCNC(=O)C1Cc2c([nH]c3ccc(Br)cc23)C2(CCN(Cc3ccccc3)CC2)N1 (stereo not given) | 0.722 µM
C=CCN(c1ccc(OC)cc1)S(=O)(=O)c1ccc(Cl)c(C(=O)Nc2cccc(C#N)c2)c1 | 0.577 µM
CCNc1cc(C(=O)N[C@@H](Cc2ccccc2)[C@H](O)CNC2CCC(C(C)(C)C)CC2)cc(N2CCCC2=O)c1 (stereo not given in full) | 0.444 µM
Cc1cc(C2CCN(CCCCNC(=O)c3ccc(-c4ccc(C#N)cc4)cc3)CC2)c(C)cc1O | 0.854 µM

Compound | XC50
CCOC(=O)c1ccc(NC(=O)N[C@H]2CCN(CCCCCNC(=O)/C=C/c3ccc(Cl)c(Cl)c3)C2)cc1 | 0.735 µM
Cc1ccc(N2C(N)=NC(N)=NC2c2ccccc2)cc1 (stereo not given) | 0.0566 µM
CN1CCN(CCCN(Cc2csc(-c3ccc(CNCc4ccccc4)cc3)n2)S(=O)(=O)c2cccc3cccnc23)CC1 | 1.41 µM
CC(=O)Oc1c(C2CCN(CCCCNC(=O)c3ccc(NC(=O)c4ccc(Cl)cc4)cc3)CC2)ccc2c1CCCC2 | 0.764 µM
Cn1nc(C(F)(F)F)c(-c2ccc(F)cc2)c1NC(=O)Nc1ccc(F)cc1 | 0.754 µM
CC(=O)c1cccc(NC(=O)NC2CCN(CCCCCNC(=O)/C=C/c3ccc(Cl)c(Cl)c3)CC2)c1 | 0.835 µM
CN1CCN(CCCCNc2c3ccccc3nc3ccccc23)CC1 | 0.704 µM
CC[C@H](NC(=O)c1c(CN2CCC(N3CCCCC3)CC2)c(-c2ccccc2)nc2cc(O)ccc12)c1ccccc1 | 1.37 µM
Cc1ccc(O)cc1C[C@@H]1C(=O)CC[C@@]2(C)[C@H]1CC[C@]2(C)O | 0.957 µM
CN1CCN(c2ccc(-c3cccc(NC(=O)c4cccc([N+](=O)[O-])c4)c3)nn2)CC1 | 0.527 µM
CC(C)C[C@@H](C(=O)Nc1ccc(Cc2ccc(NC(=O)[C@H](CC(C)C)N(C)C(=O)OC(C)(C)C)cc2)cc1)N(C)C(=O)OC(C)(C)C | 0.821 µM
Cc1cccc(Cl)c1S(=O)(=O)Nc1cccc(CCN2CCC(N3CCCCC3)CC2)c1 | 1.11 µM
Cc1cc(-c2ccc(S(=O)(=O)Nc3cc4c(cc3OC(C)C)CCN(C)CC4)cc2)ccc1Cl | 0.904 µM
Clc1ccc(Sc2cncnc2N2CCOCC2)cc1 | 0.0403 µM
NC1=NC(c2ccccc2)(c2ccccn2)C(=O)N1CCCc1ccccc1 (stereo not given) | 1.04 µM
N=C(N)c1ccc(C=CC(=O)NCC(O)CNC(=O)C=Cc2ccc(C(=N)N)cc2)cc1 (stereo not given) | 0.0314 µM
COc1ccc(NC(=O)Nc2ccc(C)c(-c3ccc(C(=O)NCCN4CCCC4)cc3)c2)cc1 | 0.902 µM
Cc1c(CNCCCNc2nc3ccccc3[nH]2)sc(C(F)F)c1Br | 0.293 µM
COc1cc2nc(NCCn3ccnc3C)nc(NCCc3ccccc3)c2cc1OC | 0.727 µM
CNC(=O)c1cnc(Nc2ccc(OCC(O)CN(C)C)cc2)nc1Nc1cccc(Br)c1 (stereo not given) | 0.121 µM
O=C(Nc1cccc(Cl)c1Cl)N1CCc2cc3nccc(N4CCN5CCC[C@H]5C4)c3cc21 | 1.04 µM
Cc1cccc(CCNC(=O)c2cc(Br)cc(N3CCN(c4ccncc4)CC3)c2)c1 | 0.874 µM
COc1ccccc1-c1sccc1C(=O)NC1(c2cc(Cl)cc(Cl)c2)CCCC1 | 0.938 µM

Reference: ChEMBL document CHEMBL1157539, “Thousands of chemical starting points for antimalarial lead identification” (Nature, 2010)
